From paper PMC10663540, “Structure-based discovery of dual pathway inhibitors for SARS-CoV-2 entry” (Nature Communications, 2023)
Where “and” joins values, the source holds several entries; their conditions need not be identical. Identical values can stand only once.

Legend:
TMPRSS2 = TMPRSS2 (Homo sapiens, UniProt O15393); experiment: biochemical; type: biochemical
human CTSL = target: T1, human CTSL (Homo sapiens, UniProt P07711); experiment: FRET enzymatic inhibition assay of CTSL (IC50 measurement); type: biochemical
T1 construct: made in house
T1 sequence (P07711 114-333): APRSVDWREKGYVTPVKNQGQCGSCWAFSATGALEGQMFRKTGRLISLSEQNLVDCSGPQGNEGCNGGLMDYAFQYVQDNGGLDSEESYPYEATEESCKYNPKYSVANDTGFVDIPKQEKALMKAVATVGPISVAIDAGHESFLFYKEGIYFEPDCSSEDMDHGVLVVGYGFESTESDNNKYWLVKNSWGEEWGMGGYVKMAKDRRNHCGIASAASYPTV

Chain of TMPRSS2 (O15393 256-492): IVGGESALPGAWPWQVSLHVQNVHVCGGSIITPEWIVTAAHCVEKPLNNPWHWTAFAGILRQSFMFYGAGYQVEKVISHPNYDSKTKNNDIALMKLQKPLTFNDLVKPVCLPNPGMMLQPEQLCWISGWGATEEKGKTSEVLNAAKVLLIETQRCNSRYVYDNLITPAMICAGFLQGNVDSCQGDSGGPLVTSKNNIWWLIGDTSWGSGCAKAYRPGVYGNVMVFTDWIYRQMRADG
Chain of TMPRSS2 (O15393 other isoform, or with tags, fused parts or gaps): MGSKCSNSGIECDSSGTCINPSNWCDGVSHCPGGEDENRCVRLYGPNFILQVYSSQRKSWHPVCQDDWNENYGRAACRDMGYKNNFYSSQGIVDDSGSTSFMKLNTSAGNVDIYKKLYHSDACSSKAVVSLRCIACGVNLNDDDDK

NC(N)=Nc1ccc(C(=O)OCCN2CCN(C(=O)N[C@@H](Cc3ccccc3)C(=O)N[C@H](/C=C/S(=O)(=O)c3ccccc3)CCc3ccccc3)CC2)cc1 [212-148]
IC50 (TMPRSS2; 0.5 nM TMPRSS2, 10 μM substrate, mean ± SD, four replicates): 1380 nM
Inhibition: TMPRSS2 (TMPRSS2; 212-148 15.2588 nM, Fig. 5b): 5.04% and 4.06% and 3.14%
inhibition at 0.0152588 µM (TMPRSS2; 212-148 15.2588 nM, Fig. 5b): 3.01%
Inhibition: TMPRSS2 (TMPRSS2; 212-148 30.5176 nM, Fig. 5b): 3.05% and 3.16% and 4.84%
inhibition at 0.0305176 µM (TMPRSS2; 212-148 30.5176 nM, Fig. 5b): 4.19%
Inhibition: TMPRSS2 (TMPRSS2; 212-148 61.0352 nM, Fig. 5b): 6.85% and 6.15% and 3.83%
inhibition at 0.0610352 µM (TMPRSS2; 212-148 61.0352 nM, Fig. 5b): 6.56%
Inhibition: TMPRSS2 (TMPRSS2; 212-148 122.07 nM, Fig. 5b): 7.87% and 8.22% and 8.32%
inhibition at 0.12207 µM (TMPRSS2; 212-148 122.07 nM, Fig. 5b): 8.2%
Inhibition: TMPRSS2 (TMPRSS2; 212-148 244.141 nM, Fig. 5b): 13.88% and 12.56% and 13.21%
inhibition at 0.244141 µM (TMPRSS2; 212-148 244.141 nM, Fig. 5b): 13.6%
Inhibition: TMPRSS2 (TMPRSS2; 212-148 488.281 nM, Fig. 5b): 22.52% and 22.28% and 23.91%
inhibition at 0.488281 µM (TMPRSS2; 212-148 488.281 nM, Fig. 5b): 23.3%
Inhibition: TMPRSS2 (TMPRSS2; 212-148 976.562 nM, Fig. 5b): 40.08% and 39.01% and 40.36%
inhibition at 0.976562 µM (TMPRSS2; 212-148 976.562 nM, Fig. 5b): 39.7%
Inhibition: TMPRSS2 (TMPRSS2; 212-148 1953.12 nM, Fig. 5b): 63.03% and 61.74% and 62.43%
inhibition at 1.95312 µM (TMPRSS2; 212-148 1953.12 nM, Fig. 5b): 61.1%
Inhibition: TMPRSS2 (TMPRSS2; 212-148 3906.25 nM, Fig. 5b): 83.44% and 83.94% and 85.49%
inhibition at 3.90625 µM (TMPRSS2; 212-148 3906.25 nM, Fig. 5b): 83.6%
Inhibition: TMPRSS2 (TMPRSS2; 212-148 7812.5 nM, Fig. 5b): 95.50% and 95.52% and 96.33%
inhibition at 7.8125 µM (TMPRSS2; 212-148 7812.5 nM, Fig. 5b): 94.8%
Inhibition: TMPRSS2 (TMPRSS2; 212-148 15625 nM, Fig. 5b): 98.35% and 96.17% and 99.57%
inhibition at 15.625 µM (TMPRSS2; 212-148 15625 nM, Fig. 5b): 97.8%
Inhibition: TMPRSS2 (TMPRSS2; 212-148 31250 nM, Fig. 5b): 98.24% and 98.70% and 100.24%
inhibition at 31.25 µM (TMPRSS2; 212-148 31250 nM, Fig. 5b): 97.8%
Inhibition: TMPRSS2 (TMPRSS2; 212-148 62500 nM, Fig. 5b): 98.19% and 99.09% and 100.93%
inhibition at 62.5 µM (TMPRSS2; 212-148 62500 nM, Fig. 5b): 98%
Inhibition: TMPRSS2 (TMPRSS2; 212-148 125000 nM, Fig. 5b): 98.93% and 99.03% and 99.02%
inhibition at 125 µM (TMPRSS2; 212-148 125000 nM, Fig. 5b): 98.3%
Inhibition: TMPRSS2 (TMPRSS2; 212-148 250000 nM, Fig. 5b): 99.15% and 99.14% and 99.60%
inhibition at 250 µM (TMPRSS2; 212-148 250000 nM, Fig. 5b): 98.1%
Inhibition: TMPRSS2 (TMPRSS2; 212-148 500000 nM, Fig. 5b): 100.68% and 99.05% and 100.75%
inhibition at 500 µM (TMPRSS2; 212-148 500000 nM, Fig. 5b): 100%
Inhibition: TMPRSS2 (TMPRSS2; 212-148 1000000 nM, Fig. 5b): 100.30% and 98.80% and 100.85%
inhibition at 1000 µM (TMPRSS2; 212-148 1000000 nM, Fig. 5b): 99.8%
Inhibition: TMPRSS2 (TMPRSS2; 212-148 2000000 nM, Fig. 5b): 100.85% and 100.05% and 100.27%
inhibition at 2000 µM (TMPRSS2; 212-148 2000000 nM, Fig. 5b): 99%
Inhibition: CTSL (human CTSL; 212-148 0.0152588 nM, Fig. 5c): 2.91% and -0.21% and -1.28% and 1.99%
Inhibition: CTSL (human CTSL; 212-148 0.0305176 nM, Fig. 5c): 3.33% and -0.12% and 1.43% and -2.77%
Inhibition: CTSL (human CTSL; 212-148 0.0610352 nM, Fig. 5c): -0.57% and 0.90% and 3.39% and -2.15%
Inhibition: CTSL (human CTSL; 212-148 0.12207 nM, Fig. 5c): 9.01% and 2.36% and 0.90% and 3.32%
Inhibition: CTSL (human CTSL; 212-148 0.244141 nM, Fig. 5c): 8.36% and 6.61% and 10.35%
inhibition at 0.000244141 µM (human CTSL; 212-148 0.244141 nM, Fig. 5c): 6.2%
Inhibition: CTSL (human CTSL; 212-148 0.488281 nM, Fig. 5c): 11.98% and 10.08% and 8.64%
inhibition at 0.000488281 µM (human CTSL; 212-148 0.488281 nM, Fig. 5c): 11.8%
Inhibition: CTSL (human CTSL; 212-148 0.976562 nM, Fig. 5c): 27.34% and 25.99% and 25.66%
inhibition at 0.000976562 µM (human CTSL; 212-148 0.976562 nM, Fig. 5c): 23.1%
Inhibition: CTSL (human CTSL; 212-148 1.95312 nM, Fig. 5c): 44.61% and 46.51% and 45.72%
inhibition at 0.00195312 µM (human CTSL; 212-148 1.95312 nM, Fig. 5c): 48%
Inhibition: CTSL (human CTSL; 212-148 3.90625 nM, Fig. 5c): 71.05% and 70.57% and 71.92%
inhibition at 0.00390625 µM (human CTSL; 212-148 3.90625 nM, Fig. 5c): 73.5%
Inhibition: CTSL (human CTSL; 212-148 7.8125 nM, Fig. 5c): 92.07% and 92.09% and 91.52%
inhibition at 0.0078125 µM (human CTSL; 212-148 7.8125 nM, Fig. 5c): 91.9%
Inhibition: CTSL (human CTSL; 212-148 15.625 nM, Fig. 5c): 98.41% and 99.33% and 98.88%
inhibition at 0.015625 µM (human CTSL; 212-148 15.625 nM, Fig. 5c): 98.4%
Inhibition: CTSL (human CTSL; 212-148 31.25 nM, Fig. 5c): 100.04% and 99.69% and 99.78%
inhibition at 0.03125 µM (human CTSL; 212-148 31.25 nM, Fig. 5c): 99.8%
Inhibition: CTSL (human CTSL; 212-148 62.5 nM, Fig. 5c): 100.21% and 99.82% and 99.78%
inhibition at 0.0625 µM (human CTSL; 212-148 62.5 nM, Fig. 5c): 100%
Inhibition: CTSL (human CTSL; 212-148 125 nM, Fig. 5c): 100.33% and 100.36% and 100.30%
inhibition at 0.125 µM (human CTSL; 212-148 125 nM, Fig. 5c): 100%
Inhibition: CTSL (human CTSL; 212-148 250 nM, Fig. 5c): 99.87% and 99.66% and 100.24%
inhibition at 0.25 µM (human CTSL; 212-148 250 nM, Fig. 5c): 100%
Inhibition: CTSL (human CTSL; 212-148 500 nM, Fig. 5c): 100.03% and 100.68% and 99.61%
inhibition at 0.5 µM (human CTSL; 212-148 500 nM, Fig. 5c): 99.9%
Inhibition: CTSL (human CTSL; 212-148 1000 nM, Fig. 5c): 100.34% and 99.76% and 100.32%
inhibition at 1 µM (human CTSL; 212-148 1000 nM, Fig. 5c): 99.5%
Inhibition: CTSL (human CTSL; 212-148 2000 nM, Fig. 5c): 100.56% and 99.97%
inhibition at 2 µM (human CTSL; 212-148 2000 nM, Fig. 5c): 99%
IC50 (human CTSL; substrate Cbz-Phe-Arg-AMC, pH 5.5, mean ± SD, four replicates): 2.13 nM
